Columns and labels:
male Sprague-Dawley rats = details: cited from earlier work
subjects = test: Phase 1 single dose study: safety and tolerability
Protocol: A phase 1 study with Compound 1 was conducted with single dosing at 0.1 mg, 0.35 mg, 1 mg, 3 mg, and 5 mg. Compound 1 was administered as the L-arginine salt.

[1] = test system: peripheral blood lymphocyte (PBL) counts; test: Phase 1 single dose study: peripheral blood lymphocyte counts; type: in vivo, human
Protocol: Compound 1 was administered as the L-arginine salt.

In the case of `O=C(O)C[C@H]1CCc2c1[nH]c1ccc(OCc3ccc(C4CCCC4)c(C(F)(F)F)c3)cc21` [Compound 1, (R)-2-(7-(4-cyclopentyl-3-(trifluoromethyl)benzyloxy)-1,2,3,4-tetrahydrocyclopenta [b]indol-3-yl)acetic acid], the Bradycardia (male Sprague-Dawley rats) is given as “no or substantially no bradycardia”, the “Vital signs, ECGs, pulmonary function tests, ophthalmoscopy, clinical laboratory tests” value (subjects; in vivo) is given as “no other clinically significant safety issues” and the Maximum tolerated dose (subjects; single dosing) is given as 3 mg. For the same molecule, the “Deaths or serious adverse events” value (subjects; single dosing 0.1 to 5 mg) was “no deaths or serious adverse events”, the “Persistence of PBL nadir” value ([1]; single dose) was 24 h and the “Time after dosing by which total PBL counts were reduced” value ([1]; single dose) was 2 to 4 h. For the same molecule, the “Time of PBL nadir” value ([1]; single dose) was no more than 8 h, the “PBL counts reduced by” value ([1]; single dose 3 mg) was roughly 40% and the “PBL counts reduced by” value ([1]; single dose 5 mg) was roughly 55%. For the same molecule, the “Recovery of PBL counts to baseline” value ([1]; single dose, after the nadir) was 4 days and the “Absolute number of peripheral blood B cells, T cells, NK cells, and all T cell subsets except TEM cells” value ([1]; single dosing at 3 and 5 mg) was “dose responsive decline”.

Reference: US12377071B2, “Methods of treating conditions related to the S1P1 receptor” (Arena Pharmaceuticals, Inc., priority 2015, dated 2025)
